# Laboratory results from US9642895B2, “Peptides for enhancing transdermal delivery” (3M INNOVATIVE PROPERTIES COMPANY, priority 2013, dated 2017).
# What was measured:
# human cadaver skin [1] = test: Phage display library selection for skin penetration using tape stripping; format: in vitro ADME; details: phage-displayed peptide; phages recovered from tape strips 21-24 and remaining skin after 4 rounds of selection; 57 plaques sequenced
# Experimental: (§1) Human cadaver skin was stored frozen. Prior to using, the frozen sections were placed in PBS and warmed to room temperature. The phage libraries or synthesized peptide sequences were applied to the stratum corneum side of the skin sample.
# A tube containing LB medium (2 mL) and tetracycline (at a concentration of 20 μg/mL) was inoculated with E. coli ER2738 cells and then incubated overnight at 37° C. with shaking (200 rpm). An aliquot (100 microliter) was added to 20 mL of fresh LB medium containing 20 μg/mL of tetracycline. The culture was incubated at 37° C. with shaking (200 rpm) of the flask and the cells were grown to the early-log phase (OD600=0.5). Next, the phage sample was added and the culture was maintained for 4 hours at 37° C. with shaking of the flask.
# E. coli ER2738 cells were removed from the phage amplified culture sample by centrifugation at 8000 rpm for 10 minutes. The resulting supernatant solution was added to the PEG/NaCl Phage precipitating solution (at a concentration of […]) and then maintained at 4° C. for 2 hours. The resulting phage precipitate was recovered by centrifuging the sample (8000 rpm for 30 min), removing the supernatant, and re-suspending the phage pellet in 2 mL of Tris-buffered saline (Tris buffered saline reagent prepared as 50 mM Tris-HCl in 150 mM NaCl buffered saline, pH 7.5). The amplified phage product was stored at 4° C.
# LB Broth Medium (5-10 mL) was inoculated with a single colony of E. coli ER2738 and incubated with shaking (200 rpm) at 37° C. until the cells reached the early-log growth phase (OD600=0.5). The culture medium was then dispensed into multiple microfuge tubes (200 microliters per microfuge tube with one tube prepared for each phage dilution). Ten fold serial dilutions of amplified phage product in LB broth medium were prepared and a 10 microliter aliquot from each dilution was added to a separate microfuge tube containing culture medium. Each tube was vortexed and incubated at room temperature for 1-5 minutes.
# The contents of each microfuge tube were transferred to a corresponding culture tube containing 3mL of soft agar maintained at 45° C. Each culture tube was then vortexed and the soft agar was poured onto a corresponding pre-warmed (37° C.) LB/IPTG/X-gal\tetraycline Petri plate. The resulting plates were gently tilted and rotated in order to evenly spread the soft agar on the plates. The plates were cooled for five minutes, inverted, and then incubated overnight at 37° C. Plates having approximately 100 plaques were counted providing an adjustment for the dilution factor. Single plaque phages on the plates were selected and further processed for DNA sequencing.
# (§2) E. coli ER2738 cell culture (800 microliters of an early-log phase prepared as described above) was added to each well of a 96 deep well plate (each well having a 2 mL volume). Single plaque phages were randomly selected from Petri plates prepared as described in the phage titration procedure. A sterilized toothpick was used to remove a plaque from the Petri plate and transfer it to a well in the 96 well plate. The infected E. coli ER2738 cells were incubated for 4 hours at 37° C. with shaking (300 rpm). The liquid cultures were then centrifuged (4000 rpm for 60 min at 4° C.) and an aliquot of the resulting phage supernatant (10 microliters) from each well was sequenced for DNA using the rolling circle amplification method. The DNA sequencing was conducted at MCLAB (South San Francisco, Calif.).
# Each phage display library (200 microliters in PBS) was applied to a 1 cm^2 section of human cadaver skin using a PIPETMAN Classic pipet (Gilson Inc., Middleton, Wis.). Adhesive tape was used to form a square frame that defined the application site. After 1 hour, the application site was washed with PBS to remove phages remaining on the skin surface. Tape stripping of the skin sample was accomplished using Scotch® box tape (3M Company, Maplewood, Minn.). […]
# Hairless guinea pigs = test: Phage display library selection for skin penetration, in vivo hairless guinea pig procedure; details: phage-displayed peptide; phages recovered from blood 1 hour after loading on back skin; 48 plaques sequenced
# Experimental: as §2
# Hairless guinea pigs (200 gram females from Charles River Laboratory, Wilmington, Mass.) were anesthetized in a chamber using 3-5% isoflurane in oxygen or air, and maintained at 1.5-3% isoflurane with a co-axial breathing device (COAX-3 obtained from Viking Medical, Medford Lakes, N.J.). Each animal was placed in lateral recumbency on a thermostatically controlled surface with its nose and mouth inside the anesthetic face mask for the duration of the experiment. During the procedure, the animal was monitored for respiration rate and the level of anesthesia was adjusted as required. The section of the back used for loading a phage library was wiped with a 70% isopropanol in water solution.
# A phage display library containing about 10^11 phage particles in 200 microliters of PBS was loaded onto a 1 cm^2 section of skin on the back of the animal using a PIPETMAN Classic pipet. In order to both control the humidity and reduce contamination at the application site, a Hill Top Chamber® (Hill Top Research, St. Petersburg, Fla.) was placed over the application site and attached with adhesive. After 1 hour, 10 mL of blood was bled from the heart. The blood was immediately transferred to a vial containing heparin (1000 USP units per mL). The sample of blood (10 mL) was mixed with 50 mL of E. coli ER2738 cells in LB broth medium (early log phase, OD600=0.5) and then added to 300 mL of soft agar. Equal portions of soft agar containing blood and ER2738 (about 7 mL per plate) were added to fifty LB/IPTG/X-gal/tetracycline Petri plates. The plates were incubated overnight at 37° C. The resulting single plaque phages were randomly picked from the agar plate and processed for phage DNA sequencing using the procedure described above. DNA sequences were successfully obtained from 48 of the 96 isolated phage plaques.
# human cadaver skin [2] = test: In vitro skin penetration enhancement of GFP, tape stripping; format: in vitro ADME; details: 0.1 mg peptide with GFP 2.55 mg/mL in PBS; 2 hours at room temperature; 20 tape strips; control without peptide reached tape strip 6
# Experimental: as §1
# An in vitro assay to test for skin penetration enhancement was conducted using human cadaver skin. Two test samples (A and B) and a control sample were prepared. Test sample A contained GFP (at a concentration of 2.55 mg/mL), 0.1 mg of the peptide ACLDNTFRAC (Sequence ID No: 6, Table 2), and PBS (50 microliters). Test sample B contained GFP (at a concentration of 2.55 mg/mL), 0.1 mg of the peptide SHSACLDNTFRACGGGS (Sequence ID No: 14, Table 3), and PBS (50 microliters). The control sample contained GFP (at a concentration of 2.55 mg/mL) and PBS (100 microliters). Each sample was applied to a separate 1 cm^2 section of human cadaver skin using a PIPETMAN classic pipet. Adhesive tape was used to form a square frame that defined each application site. The treated skin samples were covered, maintained at room temperature for 2 hours, and then washed with deionized water for 5 minutes to remove any GFP remaining on the skin surface. Tape stripping of each skin application site was accomplished using Scotch® box tape. […]
# hairless guinea pig skin [3] = test: In vitro skin penetration enhancement of FITC, tape stripping; format: in vitro ADME; details: peptide 1 mg/mL with FITC sodium salt 10 mg/mL in PBS; 1 hour at room temperature; UV 340 nm; spot indicates penetration of FITC to the 20th tape strip
# Experimental: An in vitro assay to test for skin penetration enhancement was conducted using hairless guinea pig skin. A full skin sample from the back region of the animal was used. An individual test sample for each peptide in Table 3 was prepared containing the peptide (at a concentration of 1 mg/mL), FITC sodium salt (at a concentration of 10 mg/mL), and PBS (200 microliters). The control sample was prepared containing only FITC sodium salt (at a concentration of 10 mg/mL), and PBS (200 microliters). Each peptide test sample was applied to a separate 1 cm^2 section on the stratum corneum side of the guinea pig skin using a PIPETMAN Classic pipet. In the same manner, the control sample was applied. The treated skin samples were covered, maintained at room temperature for 1 hour and then washed with deionized water for 5 minutes to remove any FITC remaining on the skin surface. Tape stripping of each skin application site was accomplished using Scotch® box tape. The tape was placed on the skin so that it covered the entire surface of an individual application site (width of tape strip approximately 1.5 cm). For each tape stripping procedure, the tape was secured to the skin with three cycles (3 forward and 3 backward passes) of a 300 g hand held roller. Next the tape was grasped by hand at one end and quickly peeled from the skin surface using a single motion. The exact same procedure of tape stripping was repeated for a total of 20 tape stripping operations at each application site. The 20th tape strip for each sample was imaged for FITC using ultraviolet light at 340 nm. The presence of a fluorescent spot on the tape indicated penetration of FITC to the 20th tape strip.
# hairless guinea pig skin [4] = test: In vitro penetration of FITC through full skin; format: in vitro ADME; details: peptide 2.5 mg/mL with FITC sodium salt 0.05 mg/mL in PBS; 3 hours at room temperature then 4° C. overnight; UV 340 nm
# Experimental: An in vitro assay to test for skin penetration enhancement was conducted using hairless guinea pig skin. A full skin sample from the back region of the animal was used. The test sample was prepared containing FITC sodium salt (at a concentration of 0.05 mg/mL), the peptide SHSACLDNTFRACG (Sequence ID No: 17) at a concentration of 2.5 mg/mL, and PBS (40 microliters). The control sample was prepared containing only FITC sodium salt (at a concentration of 0.05 mg/mL), and PBS (40 microliters). Each sample was applied to a separate 0.25 cm^2 section on the stratum corneum side of the guinea pig skin using a PIPETMAN Classic pipet. The treated skin samples were covered, maintained at room temperature for 3 hours and then at 4° C. overnight. The side of the skin sample opposite the application side was visually examined under ultraviolet light (340 nm). Visualization of a fluorescent spot on the side of the skin directly opposite from the application site was used to confirm penetration of FITC through the skin. […] For the control sample a fluorescent spot was not visualized on the side of the skin directly opposite from the application site.
Substance,Frequency of Sequence in Plaques from Tape Stripping of Human Cadaver Skin Study (human cadaver skin [1]) [n/57],Frequency of Sequence in Plaques from Hairless Guinea Pig Study (Hairless guinea pigs) [n/48],Fluorescent Spot Visualized on Tape Strip #20 (hairless guinea pig skin [3]),further results
1 (ACLPGVLGSC; Phage display library peptides) [compound 1],1,0,–,–
2 (ACSLPWDASC; Phage display library peptides) [compound 2],1,0,–,–
3 (ACDTPRLTHC; Phage display library peptides) [compound 3],2,0,–,–
4 (TWTQAWPWGWTW; Phage display library peptides) [compound 4],1,0,–,–
5 (AKSSWWGRAYWY; Phage display library peptides) [compound 5],1,0,–,–
6 (ACLDNTFRAC; Phage display library peptides) [compound 6],2,11,–,deepest penetration of the green fluorescent signal of GFP in the skin sample (tape strip number) (human cadaver skin [2]): 14
7 (ASSTTLNTLAQ; Phage display library peptides) [compound 7],9,5,–,–
8 (ASSDIPLFTRY; Phage display library peptides) [compound 8],1,4,–,–
10 (SHSACSLPWDASCGGGS; Phage display library peptides) [compound 10],–,–,yes,–
12 (SHSTWTQAWPWGWTWGGGS; Phage display library peptides) [compound 12],–,–,yes,–
13 (SHSAKSSWWGRAYWYGGGS; Phage display library peptides) [compound 13],–,–,yes,–
14 (SHSACLDNTFRACGGGS; Phage display library peptides) [compound 14],–,–,yes,deepest penetration of the green fluorescent signal of GFP in the skin sample (tape strip number) (human cadaver skin [2]): 20
15 (SHSASSTTLNTLAQWPA; Phage display library peptides) [compound 15],–,–,yes,–
16 (SHSASSDIPLFTRYGGGS; Phage display library peptides) [compound 16],–,–,yes,–
17 (SHSACLDNTFRACG; Phage display library peptides) [compound 17],–,–,–,fluorescent spot on the side of the skin directly opposite from the application site (penetration of FITC through the skin) (hairless guinea pig skin [4]): a fluorescent spot was visualized
